{"source": "paper PMC8913687", "about": "“Novel indolic AMPK modulators induce vasodilatation through activation of the AMPK–eNOS–NO pathway” (Scientific Reports, 2022)", "key": {"AMPKα1β1γ1 [1]": {"target": "T1, AMPKα1β1γ1 (Homo sapiens, UniProt Q13131+Q9Y478)", "T1 construct": "gene PRKAA1; recombinant AMPK isoform α1β1γ1; with AMPK β1 (PRKAB1) and γ1 (PRKAG1)", "T1 sequence (Q13131 whole entry, canonical isoform)": "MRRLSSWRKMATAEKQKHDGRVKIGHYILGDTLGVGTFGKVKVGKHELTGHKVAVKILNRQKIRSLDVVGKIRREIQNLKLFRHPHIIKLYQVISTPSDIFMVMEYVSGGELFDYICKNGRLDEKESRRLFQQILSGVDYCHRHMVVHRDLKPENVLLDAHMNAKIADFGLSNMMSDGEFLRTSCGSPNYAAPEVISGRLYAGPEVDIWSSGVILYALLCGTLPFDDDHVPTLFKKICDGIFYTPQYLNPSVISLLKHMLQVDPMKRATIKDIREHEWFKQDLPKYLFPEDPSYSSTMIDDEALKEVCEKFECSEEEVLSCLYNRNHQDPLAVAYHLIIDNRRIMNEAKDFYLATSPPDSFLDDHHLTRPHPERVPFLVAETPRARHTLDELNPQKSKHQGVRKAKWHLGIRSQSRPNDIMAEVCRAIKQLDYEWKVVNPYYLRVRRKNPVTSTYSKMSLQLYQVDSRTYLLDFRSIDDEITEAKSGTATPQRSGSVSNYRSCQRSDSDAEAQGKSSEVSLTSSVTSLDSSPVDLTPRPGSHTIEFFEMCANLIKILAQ", "T1 sequence (Q9Y478 2-270)": "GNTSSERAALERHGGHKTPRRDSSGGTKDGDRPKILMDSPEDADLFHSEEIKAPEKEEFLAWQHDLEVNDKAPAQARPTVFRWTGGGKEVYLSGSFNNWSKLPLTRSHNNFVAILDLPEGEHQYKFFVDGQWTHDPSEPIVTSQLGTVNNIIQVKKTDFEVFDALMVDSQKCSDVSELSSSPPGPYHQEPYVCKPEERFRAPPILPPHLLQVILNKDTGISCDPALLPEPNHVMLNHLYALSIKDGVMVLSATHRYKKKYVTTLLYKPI", "T1 sequence (P54619 whole entry partner, canonical isoform)": "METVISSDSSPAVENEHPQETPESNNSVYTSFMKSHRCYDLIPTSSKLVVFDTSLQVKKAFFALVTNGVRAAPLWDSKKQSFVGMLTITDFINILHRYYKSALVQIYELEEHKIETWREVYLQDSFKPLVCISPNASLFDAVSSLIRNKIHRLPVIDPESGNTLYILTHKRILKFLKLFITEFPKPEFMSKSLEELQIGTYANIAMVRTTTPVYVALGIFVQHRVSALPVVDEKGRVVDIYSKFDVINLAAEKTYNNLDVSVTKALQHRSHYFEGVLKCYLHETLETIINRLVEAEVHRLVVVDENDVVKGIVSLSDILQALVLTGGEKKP", "test": "ADP-Glo kinase assay with SAMS peptide, Lineweaver-Burk kinetics vs ATP; binding also shown by SPR ([…] RU at […])", "format": "biochemical"}, "AMPKα1β1γ1 [2]": {"target": "T1, AMPKα1β1γ1", "test": "SPR at […]; also […] inhibition at […] in ADP-Glo kinase assay", "format": "binding"}, "AMPKα1β1γ1 [3]": {"target": "T1, AMPKα1β1γ1", "test": "SPR at […]; also […] inhibition at […] in ADP-Glo kinase assay", "format": "binding", "remark": "listed apart in the source"}, "AMPKα1β1γ1 [4]": {"target": "T1, AMPKα1β1γ1", "test": "SPR, […] series and competition with […] ATP", "format": "binding"}}, "note": "Like-named read-outs stand apart in the source and are kept apart here."}
{"smiles": "O=C(O)c1[nH]c2ccccc2c1-c1ccc(OCc2ccccc2)cc1", "note": "[IND6, 3-(4-(Benzyloxy)phenyl)-1H-indole-2-carboxylic acid]", "values": [{"measurement": "Ki", "setting": "AMPKα1β1γ1 [1]", "result": 6.9, "unit": "µM"}]}
{"smiles": "O=C(O)c1[nH]c2ccccc2c1-c1ccc(-c2ccccc2)cc1", "note": "[IND7]", "values": [{"measurement": "Binding 100 μM (RU)^b / AMPK α1:β1:γ1", "setting": "AMPKα1β1γ1 [2]", "result": 13.6, "unit": "RU"}]}
{"smiles": "O=C(O)c1[nH]c2ccccc2c1-c1ccc(Oc2ccccc2)cc1", "note": "[IND8]", "values": [{"measurement": "Binding 100 μM (RU)^b / AMPK α1:β1:γ1", "setting": "AMPKα1β1γ1 [3]", "result": 14.6, "unit": "RU"}]}
{"smiles": "CNC(=O)c1ccccc1Oc1nc(Nc2cc(OC)c(OC)c(OC)c2)ncc1Br", "note": "[SBI-0206965]", "values": [{"measurement": "SPR, 10-100 μM series and competition with 200 μM ATP", "setting": "AMPKα1β1γ1 [4]", "result": "sensorgrams showed a progressive increase in the binding, which was much larger for SBI-0206965"}]}
